Measurements as given in PMC10176470, “Engaging a Non-catalytic Cysteine Residue Drives Potent and Selective Inhibition of Caspase-6” (Journal of the American Chemical Society, 2023).

What was measured:
Test in all cases: SILAC proteomics / in-gel fluorescence, competition of probe 13-t labeling by 3a
[1] = molecular target: proteins of HEK293T cells transiently overexpressing caspase-6 (Homo sapiens, UniProt P62888); details: Comp; protein RPL30 P62888
[2] = molecular target: proteins of HEK293T cells transiently overexpressing caspase-6 (Homo sapiens, UniProt P06733); details: Comp; protein ENO1 P06733
[3] = molecular target: proteins of HEK293T cells transiently overexpressing caspase-6 (Homo sapiens, UniProt P10809); details: Comp; protein HSPD1 P10809
[4] = molecular target: proteins of HEK293T cells transiently overexpressing caspase-6 (Homo sapiens, UniProt Q07666); details: Comp; protein KHDRBS1 Q07666
[5] = molecular target: proteins of HEK293T cells transiently overexpressing caspase-6 (Homo sapiens, UniProt O00571)
[6] = molecular target: proteins of HEK293T cells transiently overexpressing caspase-6 (Homo sapiens, UniProt P61247); details: Comp; protein RPS3A P61247
[7] = molecular target: proteins of HEK293T cells transiently overexpressing caspase-6 (Homo sapiens, UniProt P11388); details: Comp; protein TOP2A P11388
[8] = molecular target: proteins of HEK293T cells transiently overexpressing caspase-6 (Homo sapiens, UniProt P06744)
[9] = molecular target: proteins of HEK293T cells transiently overexpressing caspase-6 (Homo sapiens, UniProt Q7KZF4); details: Comp; protein SND1 Q7KZF4
[10] = molecular target: proteins of HEK293T cells transiently overexpressing caspase-6 (Homo sapiens, UniProt P14868); details: Comp; protein DARS P14868
[11] = molecular target: proteins of HEK293T cells transiently overexpressing caspase-6 (Homo sapiens, UniProt Q12905); details: Comp; protein ILF2 Q12905
[12] = molecular target: proteins of HEK293T cells transiently overexpressing caspase-6 (Homo sapiens, UniProt P52209); details: Comp; protein PGD P52209
[13] = molecular target: proteins of HEK293T cells transiently overexpressing caspase-6 (Homo sapiens, UniProt Q9Y262)
[14] = molecular target: proteins of HEK293T cells transiently overexpressing caspase-6 (Homo sapiens, UniProt P62424); details: Comp; protein RPL7A P62424
[15] = molecular target: proteins of HEK293T cells transiently overexpressing caspase-6 (Homo sapiens, UniProt P33992); details: Comp; protein MCM5 P33992
[16] = molecular target: proteins of HEK293T cells transiently overexpressing caspase-6 (Homo sapiens, UniProt P12277); details: Comp; protein CKB P12277
[17] = molecular target: T1, proteins of HEK293T cells transiently overexpressing caspase-6 (Homo sapiens, UniProt O75844)
T1 sequence (O75844 1-475): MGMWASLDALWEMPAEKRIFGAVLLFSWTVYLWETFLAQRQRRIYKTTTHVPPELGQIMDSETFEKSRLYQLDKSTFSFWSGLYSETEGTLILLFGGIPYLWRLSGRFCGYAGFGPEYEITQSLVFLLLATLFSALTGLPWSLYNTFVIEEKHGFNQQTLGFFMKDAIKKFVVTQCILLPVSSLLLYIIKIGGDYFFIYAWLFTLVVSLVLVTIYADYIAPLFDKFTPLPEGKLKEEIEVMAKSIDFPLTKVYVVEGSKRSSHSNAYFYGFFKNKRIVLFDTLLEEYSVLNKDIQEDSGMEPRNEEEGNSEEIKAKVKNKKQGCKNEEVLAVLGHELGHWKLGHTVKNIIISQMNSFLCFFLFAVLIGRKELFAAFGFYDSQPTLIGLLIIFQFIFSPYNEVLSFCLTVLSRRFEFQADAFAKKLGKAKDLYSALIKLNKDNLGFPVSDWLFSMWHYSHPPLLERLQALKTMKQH

[18] = molecular target: proteins of HEK293T cells transiently overexpressing caspase-6 (Homo sapiens, UniProt Q04637); details: Comp; protein EIF4G1 Q04637
[19] = protein DDX3X (O00571), Exp Comp, analysis C6, p 0.1250, 4 peptides
[20] = protein GPI (P06744), Exp Comp, analysis C6, p 0.0078, 8 peptides
[21] = protein EIF3L (Q9Y262), Exp Comp, analysis C6, p 0.8438, 6 peptides
[22] = protein ZMPSTE24 (O75844), Exp Comp, analysis C6, p 0.5000, 2 peptides

Sequence of proteins of HEK293T cells transiently overexpressing caspase-6 (Homo sapiens, UniProt Q9Y262) (Q9Y262 whole entry): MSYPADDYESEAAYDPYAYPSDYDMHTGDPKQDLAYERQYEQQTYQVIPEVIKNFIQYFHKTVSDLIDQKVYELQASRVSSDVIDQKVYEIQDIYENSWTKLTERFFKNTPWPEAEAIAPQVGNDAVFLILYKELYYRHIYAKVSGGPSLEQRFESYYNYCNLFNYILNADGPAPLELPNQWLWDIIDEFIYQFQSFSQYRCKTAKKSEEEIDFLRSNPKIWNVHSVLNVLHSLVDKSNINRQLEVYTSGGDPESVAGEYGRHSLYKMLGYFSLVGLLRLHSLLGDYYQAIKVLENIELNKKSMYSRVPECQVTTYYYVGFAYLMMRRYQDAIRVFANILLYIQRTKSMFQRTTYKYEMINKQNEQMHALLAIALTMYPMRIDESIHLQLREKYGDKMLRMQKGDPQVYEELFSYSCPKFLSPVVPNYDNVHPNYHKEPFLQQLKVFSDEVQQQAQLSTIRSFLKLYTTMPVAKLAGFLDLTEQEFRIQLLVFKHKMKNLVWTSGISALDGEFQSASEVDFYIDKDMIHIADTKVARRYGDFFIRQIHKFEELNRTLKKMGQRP
Sequence of proteins of HEK293T cells transiently overexpressing caspase-6 (Homo sapiens, UniProt O00571) (O00571 whole entry): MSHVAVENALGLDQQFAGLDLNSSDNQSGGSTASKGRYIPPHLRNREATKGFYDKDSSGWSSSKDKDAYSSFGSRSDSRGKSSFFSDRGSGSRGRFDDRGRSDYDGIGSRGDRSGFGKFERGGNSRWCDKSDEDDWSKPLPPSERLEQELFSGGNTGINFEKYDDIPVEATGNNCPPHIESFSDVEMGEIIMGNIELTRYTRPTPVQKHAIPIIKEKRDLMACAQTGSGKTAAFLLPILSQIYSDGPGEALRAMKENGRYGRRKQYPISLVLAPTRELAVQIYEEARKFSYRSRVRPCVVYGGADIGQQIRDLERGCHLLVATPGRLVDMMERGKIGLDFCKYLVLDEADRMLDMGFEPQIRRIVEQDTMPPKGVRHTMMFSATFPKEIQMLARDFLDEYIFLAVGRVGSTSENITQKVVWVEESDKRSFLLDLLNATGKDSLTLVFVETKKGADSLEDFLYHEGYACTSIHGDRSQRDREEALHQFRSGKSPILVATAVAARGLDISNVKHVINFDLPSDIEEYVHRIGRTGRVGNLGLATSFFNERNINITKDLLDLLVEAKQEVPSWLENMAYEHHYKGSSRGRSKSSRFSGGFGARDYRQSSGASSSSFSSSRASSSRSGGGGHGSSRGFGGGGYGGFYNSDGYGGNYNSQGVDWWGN
Sequence of proteins of HEK293T cells transiently overexpressing caspase-6 (Homo sapiens, UniProt Q7KZF4) (Q7KZF4 whole entry): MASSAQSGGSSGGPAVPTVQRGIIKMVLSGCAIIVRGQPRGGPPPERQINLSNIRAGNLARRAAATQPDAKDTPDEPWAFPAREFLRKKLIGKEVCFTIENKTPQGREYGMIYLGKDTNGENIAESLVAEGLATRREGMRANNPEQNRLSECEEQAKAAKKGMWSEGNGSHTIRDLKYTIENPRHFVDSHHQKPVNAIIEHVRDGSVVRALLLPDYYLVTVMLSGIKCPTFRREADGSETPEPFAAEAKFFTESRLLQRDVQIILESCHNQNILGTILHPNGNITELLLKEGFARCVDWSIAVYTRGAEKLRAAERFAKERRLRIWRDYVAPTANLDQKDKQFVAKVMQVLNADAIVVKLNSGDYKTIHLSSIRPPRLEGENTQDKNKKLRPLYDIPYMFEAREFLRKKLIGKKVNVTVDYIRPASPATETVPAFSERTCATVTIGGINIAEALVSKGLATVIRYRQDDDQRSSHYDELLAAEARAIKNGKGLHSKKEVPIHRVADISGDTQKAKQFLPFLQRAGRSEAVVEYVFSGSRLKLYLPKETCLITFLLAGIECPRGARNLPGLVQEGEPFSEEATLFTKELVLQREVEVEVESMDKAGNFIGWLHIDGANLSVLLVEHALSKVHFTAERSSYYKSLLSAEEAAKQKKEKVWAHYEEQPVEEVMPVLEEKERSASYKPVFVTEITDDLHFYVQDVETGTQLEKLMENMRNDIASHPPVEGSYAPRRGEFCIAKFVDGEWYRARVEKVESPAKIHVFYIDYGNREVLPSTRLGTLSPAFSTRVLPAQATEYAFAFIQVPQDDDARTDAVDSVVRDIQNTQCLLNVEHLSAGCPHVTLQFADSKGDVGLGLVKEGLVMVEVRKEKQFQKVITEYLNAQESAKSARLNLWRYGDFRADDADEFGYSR
Sequence of proteins of HEK293T cells transiently overexpressing caspase-6 (Homo sapiens, UniProt P12277) (P12277 whole entry): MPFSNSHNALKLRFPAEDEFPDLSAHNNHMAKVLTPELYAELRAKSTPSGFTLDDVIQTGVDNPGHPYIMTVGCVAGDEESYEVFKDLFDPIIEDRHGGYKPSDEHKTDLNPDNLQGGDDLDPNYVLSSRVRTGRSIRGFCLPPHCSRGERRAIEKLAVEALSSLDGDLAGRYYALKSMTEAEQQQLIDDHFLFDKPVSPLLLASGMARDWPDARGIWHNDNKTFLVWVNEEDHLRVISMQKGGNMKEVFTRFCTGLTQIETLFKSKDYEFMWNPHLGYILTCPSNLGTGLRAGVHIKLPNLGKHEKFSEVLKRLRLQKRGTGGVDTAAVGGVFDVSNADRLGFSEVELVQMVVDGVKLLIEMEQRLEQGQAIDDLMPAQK
Sequence of proteins of HEK293T cells transiently overexpressing caspase-6 (Homo sapiens, UniProt Q12905) (Q12905 whole entry): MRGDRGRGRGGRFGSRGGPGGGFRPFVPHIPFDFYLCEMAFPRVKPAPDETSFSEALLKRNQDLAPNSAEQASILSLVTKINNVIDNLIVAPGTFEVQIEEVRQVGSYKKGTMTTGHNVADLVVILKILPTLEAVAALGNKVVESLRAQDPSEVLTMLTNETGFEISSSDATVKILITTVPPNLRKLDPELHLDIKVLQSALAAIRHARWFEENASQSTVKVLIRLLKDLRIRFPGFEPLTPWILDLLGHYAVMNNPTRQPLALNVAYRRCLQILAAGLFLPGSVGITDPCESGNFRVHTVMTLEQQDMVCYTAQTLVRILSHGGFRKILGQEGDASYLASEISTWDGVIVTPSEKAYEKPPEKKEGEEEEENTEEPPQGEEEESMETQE
Sequence of proteins of HEK293T cells transiently overexpressing caspase-6 (Homo sapiens, UniProt P06733) (P06733 whole entry): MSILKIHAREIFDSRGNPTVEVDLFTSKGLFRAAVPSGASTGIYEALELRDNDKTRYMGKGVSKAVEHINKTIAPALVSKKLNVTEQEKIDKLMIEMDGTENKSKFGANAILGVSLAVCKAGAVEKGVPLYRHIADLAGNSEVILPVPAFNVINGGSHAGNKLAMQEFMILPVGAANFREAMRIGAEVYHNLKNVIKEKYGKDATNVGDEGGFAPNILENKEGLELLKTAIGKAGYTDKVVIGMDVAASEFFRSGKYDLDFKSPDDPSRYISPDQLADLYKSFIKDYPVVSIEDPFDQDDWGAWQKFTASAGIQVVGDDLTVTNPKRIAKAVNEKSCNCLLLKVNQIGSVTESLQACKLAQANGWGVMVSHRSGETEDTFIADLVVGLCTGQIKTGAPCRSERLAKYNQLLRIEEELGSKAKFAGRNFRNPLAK
Sequence of proteins of HEK293T cells transiently overexpressing caspase-6 (Homo sapiens, UniProt P14868) (P14868 whole entry): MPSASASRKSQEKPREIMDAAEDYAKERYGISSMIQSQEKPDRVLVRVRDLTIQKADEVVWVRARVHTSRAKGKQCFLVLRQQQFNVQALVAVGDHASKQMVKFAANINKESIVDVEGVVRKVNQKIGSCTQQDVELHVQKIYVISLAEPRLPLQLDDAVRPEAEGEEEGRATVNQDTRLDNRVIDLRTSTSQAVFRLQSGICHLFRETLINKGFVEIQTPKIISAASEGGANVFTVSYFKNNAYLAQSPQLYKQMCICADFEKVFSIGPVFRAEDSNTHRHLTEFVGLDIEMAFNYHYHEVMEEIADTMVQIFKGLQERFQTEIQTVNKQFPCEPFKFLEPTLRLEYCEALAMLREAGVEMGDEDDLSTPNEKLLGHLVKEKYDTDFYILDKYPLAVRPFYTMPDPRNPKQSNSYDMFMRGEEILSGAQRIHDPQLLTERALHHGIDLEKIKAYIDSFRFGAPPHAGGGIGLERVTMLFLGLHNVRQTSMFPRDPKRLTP
Sequence of proteins of HEK293T cells transiently overexpressing caspase-6 (Homo sapiens, UniProt P10809) (P10809 27-573): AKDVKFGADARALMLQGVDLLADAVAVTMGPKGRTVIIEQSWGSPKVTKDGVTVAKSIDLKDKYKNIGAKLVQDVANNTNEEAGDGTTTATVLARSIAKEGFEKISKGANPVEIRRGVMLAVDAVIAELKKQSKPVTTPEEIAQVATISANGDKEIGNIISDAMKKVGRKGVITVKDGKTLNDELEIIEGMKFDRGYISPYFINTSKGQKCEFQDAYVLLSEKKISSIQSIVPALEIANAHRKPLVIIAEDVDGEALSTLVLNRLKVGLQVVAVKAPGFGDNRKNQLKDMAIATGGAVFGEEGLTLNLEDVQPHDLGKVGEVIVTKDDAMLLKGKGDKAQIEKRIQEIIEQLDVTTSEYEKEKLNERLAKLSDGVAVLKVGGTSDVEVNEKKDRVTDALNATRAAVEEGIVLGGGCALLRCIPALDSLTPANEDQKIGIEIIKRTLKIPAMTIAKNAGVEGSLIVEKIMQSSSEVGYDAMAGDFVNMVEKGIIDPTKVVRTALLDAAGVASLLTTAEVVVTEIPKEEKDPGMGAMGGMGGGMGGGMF
Sequence of proteins of HEK293T cells transiently overexpressing caspase-6 (Homo sapiens, UniProt P52209) (P52209 whole entry): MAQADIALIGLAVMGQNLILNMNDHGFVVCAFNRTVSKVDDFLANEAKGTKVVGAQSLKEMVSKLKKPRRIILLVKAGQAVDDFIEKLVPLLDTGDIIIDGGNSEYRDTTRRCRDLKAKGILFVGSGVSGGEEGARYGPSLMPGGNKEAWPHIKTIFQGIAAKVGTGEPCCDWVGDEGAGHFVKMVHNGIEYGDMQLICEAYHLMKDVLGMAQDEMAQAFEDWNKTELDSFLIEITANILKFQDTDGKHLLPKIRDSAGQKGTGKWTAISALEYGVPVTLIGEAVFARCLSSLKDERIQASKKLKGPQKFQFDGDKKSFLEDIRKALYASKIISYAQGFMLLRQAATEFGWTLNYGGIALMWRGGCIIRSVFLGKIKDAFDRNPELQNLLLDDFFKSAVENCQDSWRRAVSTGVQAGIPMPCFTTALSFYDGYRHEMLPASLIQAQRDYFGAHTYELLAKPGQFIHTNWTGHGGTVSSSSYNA

Work on `C=CS(=O)(=O)N1C[C@H](C(=O)Nc2ccc(OC(F)(F)F)cc2)C[C@@H](c2ccccc2)C1` [3a] yielded an enrich.exp.med [1] of 0.6036, an enrich.exp.med [2] of 0.6321 and an enrich.exp.med [3] of 0.6402. For the same molecule, the enrich.exp.med [4] was 0.748, the enrich.exp.med ([5]; Comp, protein DDX3X O00571) was 1.089 and the enrich.exp.med.lin [5, 19] was 2.128. For the same molecule, the enrich.exp.med.log2 [5, 19] was 1.089, the enrich.exp.med [6] was 0.7684 and the enrich.exp.med [7] was 0.7274. It also gave an enrich.exp.med ([8]; Comp, protein GPI P06744) of 1.157, an enrich.exp.med.lin [8, 20] of 2.229 and an enrich.exp.med.log2 [8, 20] of 1.157. For the same molecule, the enrich.exp.med [9] was 0.6493, the enrich.exp.med [10] was 0.8565 and the enrich.exp.med [11] was 0.7326. For the same molecule, the enrich.exp.med [12] was 0.9271, the enrich.exp.med ([13]; Comp, protein EIF3L Q9Y262) was 1.059 and the enrich.exp.med.lin [13, 21] was 2.083. The enrich.exp.med.log2 [13, 21] was 1.059, the enrich.exp.med [14] was 0.707 and the enrich.exp.med [15] was 0.8256. For the same molecule, the enrich.exp.med [16] was 0.6631, the enrich.exp.med ([17]; Comp, protein ZMPSTE24 O75844) was 1.01 and the enrich.exp.med.lin [17, 22] was 2.0144. The enrich.exp.med.log2 [17, 22] was 1.01 and the enrich.exp.med [18] was 0.702.
